Data: the NIST ThermoML archive (doi:10.1021/je101192x)

Experiment: wn = mass fraction of the nth substance listed
Details: for viscosity / mass density: 101 kPa, Liquid; for viscosity: Capillary tube (Ostwald / Ubbelohde) method; for mass density: Pycnometric method; for surface tension liquid-gas: Pendant drop shape

CN(CCO)CCO [N-methyldiethanolamine] + O
Details	mass density, 288.15 K [kg/m3]	mass density, 313.15 K [kg/m3]	surface tension liquid-gas, 313.15 K [mN/m]	viscosity, 288.15 K [mPa·s]	viscosity, 313.15 K [mPa·s]
w1 = 0.1	1007.1	1001.1	58.71	1.711	0.905
w1 = 0.2	1017.5	1008.1	54.68	2.631	1.312
